Source: US4550021A (The Kitasato Institute, priority 1983, dated 1985)

Legend:
Type in all cases: physicochemical
Stability under heating = experiment: Stability under heating
Solubility = conditions: for Solubility in organic solvents: dichloromethane, chloroform, acetone
Nature (acid/base) = experiment: Nature (acid/base)

Q: Which results are given for `CCC(=C/[C@H](C)C/C=C/C(C)=C/[C@@H](CO)C(=O)[C@@H](C)[C@H](O)[C@@H](C)C/C(C)=C/C(=O)O)/C=C/[C@@H]1OC(=O)C=C[C@@H]1C` [antibiotic 81-484]?
A: stability under heating (Stability under heating): stable under heating; Solubility in organic solvents (Solubility; diethyl ether, methanol, ethyl acetate, butyl acetate, benzene): soluble; Solubility in hexane (Solubility; hexane): insoluble; Solubility in organic solvents (Solubility; many types: methanol, ethanol, methyl isobutyl ketone): soluble; Solubility in water (Solubility; water): insoluble; Nature (Nature (acid/base)): acidic substance
